According to the NIST ThermoML archive (doi:10.1021/je050070r):

Conditions: Liquid

O=C(O)C(F)(F)C(F)(F)C(F)(F)C(F)(F)C(F)(F)C(F)(F)C(F)(F)F [pentadecafluorooctanoic acid]
Conditions	vapor or sublimation pressure [kPa]
332.4 K	0.128
335.52 K	0.168
339.75 K	0.231
345.75 K	0.361
352.15 K	0.581
359.75 K	0.96
368.05 K	1.602
377.09 K	2.69
387.15 K	4.591
397.55 K	7.691
409.26 K	13.07
421.75 K	22.16
435.35 K	37.25
450.95 K	63.98
463.95 K	96.5

O=C(O)C(F)(F)C(F)(F)C(F)(F)C(F)(F)C(F)(F)C(F)(F)C(F)(F)C(F)(F)C(F)(F)F [nonadecafluorodecanoic acid]
Conditions	vapor or sublimation pressure [kPa]
402.71 K	3.129
406.24 K	3.749
414.08 K	5.541
425.35 K	9.331
436.83 K	15.18
447.12 K	22.77
460.65 K	37.23
476.08 K	62.05
492.03 K	99.97

O=C(O)C(F)(F)C(F)(F)C(F)(F)C(F)(F)C(F)(F)C(F)(F)C(F)(F)C(F)(F)C(F)(F)C(F)(F)F [perfluoroundecanoic acid]
Conditions	vapor or sublimation pressure [kPa]
385.19 K	0.616
393.78 K	1.062
402.69 K	1.752
412.29 K	2.785
412.41 K	2.789
422.37 K	4.513
431.47 K	6.925
445.17 K	12.44
459.92 K	20.7
473.83 K	34.49
475.24 K	34.48
491.44 K	58.6
491.79 K	58.6
509.83 K	96.51
510.8 K	99.97

O=C(O)C(F)(F)C(F)(F)C(F)(F)C(F)(F)C(F)(F)C(F)(F)C(F)(F)C(F)(F)C(F)(F)C(F)(F)C(F)(F)F [dodecanoic acid, tricosafluoro-]
Conditions	vapor or sublimation pressure [kPa]
400.73 K	0.856
413.72 K	1.819
422.1 K	2.854
422.75 K	2.985
433.27 K	4.848
445.63 K	8.29
457.94 K	13.81
470.59 K	22.07
483.66 K	34.48
498.85 K	55.15
520.51 K	99.96

O=C(O)C(F)(F)C(F)(F)C(F)(F)C(F)(F)C(F)(F)C(F)(F)C(F)(F)C(F)(F)F [perfluorononanoic acid]
Conditions	vapor or sublimation pressure [kPa]
372.78 K	1.12
382.69 K	2.02
390.81 K	3.12
401.7 K	5.54
412.92 K	9.33
423.86 K	15.19
432.85 K	22.77
446.11 K	37.25
461.08 K	62.07
476.13 K	99.97
476.27 K	99.97
